Measurements: patent US5994340A, “Azetidinone derivatives as β-lactamase inhibitors” (SynPhar Laboratories, Inc., priority 1997, dated 1999)
Where a name gives a salt, the structure may show the parent alone.

Columns and labels:
[1] = target: cephalosporinase from P. aeruginosa (Pseudomonas aeruginosa, UniProt P24735); assay: β-Lactamase inhibitory activity, spectrophotometric rate assay at 490 nm with nitrocefin as substrate; type: biochemical
Procedure: The inhibitory activities of present compounds (β-lactamase inhibitors) against cephalosporinase from P. aeruginosa was measured by spectrophotometric rate assay using 490 nm and using nitrocefin as a substrate (J. Antimicrob. Chemother., vol. 28, pp 775-776, 1991).

[2] = tested on: P. aeruginosa 46220 DR-2-1; assay: microbe, parasite or virus in culture; type: cell-based; conditions: Pseudomonas aeruginosa, 46220DR21, 18 h, read-out: MIC of ceftazidime alone
Procedure: (§1) […]. After incubation in Mueller-Hinton Broth (Difco) at 37° C. for 18 h, the bacterial suspension was diluted and about 10^5 CFU/ml was applied to the drug-containing Mueller-Hinton Broth in each well of 96 well plate. The MICs were recorded after 18 h of incubation at 37° C. on the lowest combinations of drug that inhibited visible growth of bacteria.

[3] = tested on: P. aeruginosa PAO 303 carb-4; assay: microbe, parasite or virus in culture; type: cell-based; conditions: Pseudomonas aeruginosa, PAO303CARB4, 18 h, read-out: MIC of ceftazidime alone
Procedure: as §1

E. cloacae MNH-2 = assay: MIC of ceftazidime, microbroth dilution; type: cell-based; conditions: Enterobacter cloacae, MNH2, 18 h, read-out: MIC of ceftazidime alone
Procedure: (§2) After incubation in Mueller-Hinton Broth (Difco) at 37° C. for 18 h, the bacterial suspension was diluted and about 10^5 CFU/ml was applied to the drug-containing Mueller-Hinton Broth in each well of 96 well plate. The MICs were recorded after 18 h of incubation at 37° C. on the lowest combinations of drug that inhibited visible growth of bacteria.

E. cloacae 40054 = assay: MIC of ceftazidime, microbroth dilution; type: cell-based; conditions: Enterobacter cloacae, 40054, 18 h, read-out: MIC of ceftazidime alone
Procedure: as §2

E. cloacae P 99 = assay: microbe, parasite or virus in culture; type: cell-based; conditions: Enterobacter cloacae, P99, 18 h, read-out: MIC of ceftazidime alone
Procedure: as §2

P. aeruginosa M 1405 = assay: MIC of ceftazidime, microbroth dilution; type: cell-based; conditions: Pseudomonas aeruginosa, M1405, 18 h, read-out: MIC of ceftazidime alone
Procedure: as §1

P. aeruginosa 46012 = assay: MIC of ceftazidime, microbroth dilution; type: cell-based; conditions: Pseudomonas aeruginosa, 46012, 18 h, read-out: MIC of ceftazidime alone
Procedure: as §1

M. morganii 36030 = assay: MIC of ceftazidime, microbroth dilution; type: cell-based; conditions: Morganella morganii, 36030, 18 h, read-out: MIC of ceftazidime alone
Procedure: as §1

P. aeruginosa L46004 = assay: MIC of ceftazidime, microbroth dilution; type: cell-based; conditions: Pseudomonas aeruginosa, L46004, 18 h, read-out: MIC of ceftazidime alone
Procedure: as §1

C. freundii 44032 = assay: MIC of ceftazidime, microbroth dilution; type: cell-based; conditions: Citrobacter freundii, 44032, 18 h, read-out: MIC of ceftazidime alone
Procedure: as §1

E. aerogenes S-95 = assay: MIC of ceftazidime, microbroth dilution; type: cell-based; conditions: Klebsiella aerogenes, S95, 18 h, read-out: MIC of ceftazidime alone
Procedure: as §1

C. freundii CT-76 = assay: MIC of ceftazidime, microbroth dilution; type: cell-based; conditions: Citrobacter freundii, CT76, 18 h, read-out: MIC of ceftazidime alone
Procedure: as §1

P. aeruginosa AU-8 = assay: MIC of ceftazidime, microbroth dilution; type: cell-based; conditions: Pseudomonas aeruginosa, AU8, 18 h, read-out: MIC of ceftazidime alone
Procedure: as §1

P. aeruginosa AU-1 = assay: MIC of ceftazidime, microbroth dilution; type: cell-based; conditions: Pseudomonas aeruginosa, AU1, 18 h, read-out: MIC of ceftazidime alone
Procedure: as §1

M. morganii 36014 = assay: MIC of ceftazidime, microbroth dilution; type: cell-based; conditions: Morganella morganii, 36014, 18 h, read-out: MIC of ceftazidime alone
Procedure: as §1

E. aerogenes 41006 = assay: MIC of ceftazidime, microbroth dilution; type: cell-based; conditions: Klebsiella aerogenes, 41006, 18 h, read-out: MIC of ceftazidime alone
Procedure: as §1

P. aeruginosa AU-10 = assay: MIC of ceftazidime, microbroth dilution; type: cell-based; conditions: Pseudomonas aeruginosa, AU10; ceftazidime alone, 18 h
Procedure: as §2, with “The MICs of the antibiotics (e.g., ceftazidime) alone, the MICs of ceftazidime in combination with reference compounds particularly […] (Ref. compd. I) and the MICs of the β-lactamase inhibitors (10 μg/ml) of the present invention in combination with ceftazidime were determined with the same β-lactamase producing bacteria. After” for “After”

P. aeruginosa 46017 = assay: MIC of ceftazidime, microbroth dilution; type: cell-based; conditions: Pseudomonas aeruginosa, ceftazidime alone, 18 h
Procedure: as §2, with “The MICs of the antibiotics (e.g., ceftazidime) alone, the MICs of ceftazidime in combination with reference compounds particularly […] (Ref. compd. I) and the MICs of the β-lactamase inhibitors (10 μg/ml) of the present invention in combination with ceftazidime were determined with the same β-lactamase producing bacteria. After” for “After”

P. aeruginosa CT-122 = assay: MIC of ceftazidime, microbroth dilution; type: cell-based; conditions: Pseudomonas aeruginosa, CT122; ceftazidime alone, 18 h
Procedure: as §2, with “The MICs of the antibiotics (e.g., ceftazidime) alone, the MICs of ceftazidime in combination with reference compounds particularly […] (Ref. compd. I) and the MICs of the β-lactamase inhibitors (10 μg/ml) of the present invention in combination with ceftazidime were determined with the same β-lactamase producing bacteria. After” for “After”

M. morganii 36010 = assay: MIC of ceftazidime, microbroth dilution; type: cell-based; conditions: Morganella morganii, ceftazidime alone, 18 h
Procedure: as §2, with “The MICs of the antibiotics (e.g., ceftazidime) alone, the MICs of ceftazidime in combination with reference compounds particularly […] (Ref. compd. I) and the MICs of the β-lactamase inhibitors (10 μg/ml) of the present invention in combination with ceftazidime were determined with the same β-lactamase producing bacteria. After” for “After”

P. aeruginosa CT-144 = assay: MIC of ceftazidime, microbroth dilution; type: cell-based; conditions: Pseudomonas aeruginosa, CT144; ceftazidime alone, 18 h
Procedure: as §2, with “The MICs of the antibiotics (e.g., ceftazidime) alone, the MICs of ceftazidime in combination with reference compounds particularly […] (Ref. compd. I) and the MICs of the β-lactamase inhibitors (10 μg/ml) of the present invention in combination with ceftazidime were determined with the same β-lactamase producing bacteria. After” for “After”

P. aeruginosa CT-137 = assay: MIC of ceftazidime, microbroth dilution; type: cell-based; conditions: Pseudomonas aeruginosa, CT137; ceftazidime alone, 18 h
Procedure: as §2, with “The MICs of the antibiotics (e.g., ceftazidime) alone, the MICs of ceftazidime in combination with reference compounds particularly […] (Ref. compd. I) and the MICs of the β-lactamase inhibitors (10 μg/ml) of the present invention in combination with ceftazidime were determined with the same β-lactamase producing bacteria. After” for “After”

P. aeruginosa M2297 = assay: MIC of ceftazidime, microbroth dilution; type: cell-based; conditions: Pseudomonas aeruginosa, ceftazidime alone, 18 h
Procedure: as §2, with “The MICs of the antibiotics (e.g., ceftazidime) alone, the MICs of ceftazidime in combination with reference compounds particularly […] (Ref. compd. I) and the MICs of the β-lactamase inhibitors (10 μg/ml) of the present invention in combination with ceftazidime were determined with the same β-lactamase producing bacteria. After” for “After”

P. aeruginosa AU-5 = assay: MIC of ceftazidime, microbroth dilution; type: cell-based; conditions: Pseudomonas aeruginosa, AU5; ceftazidime alone, 18 h
Procedure: as §2, with “The MICs of the antibiotics (e.g., ceftazidime) alone, the MICs of ceftazidime in combination with reference compounds particularly […] (Ref. compd. I) and the MICs of the β-lactamase inhibitors (10 μg/ml) of the present invention in combination with ceftazidime were determined with the same β-lactamase producing bacteria. After” for “After”

[4] = tested on: P. aeruginosa sp 2439 Wt.; assay: MIC of ceftazidime, microbroth dilution; type: cell-based; conditions: Pseudomonas aeruginosa, SP2439WT.; ceftazidime alone, 18 h
Procedure: as §2, with “The MICs of the antibiotics (e.g., ceftazidime) alone, the MICs of ceftazidime in combination with reference compounds particularly […] (Ref. compd. I) and the MICs of the β-lactamase inhibitors (10 μg/ml) of the present invention in combination with ceftazidime were determined with the same β-lactamase producing bacteria. After” for “After”

P. aeruginosa 46220 DR-2 = assay: MIC of ceftazidime, microbroth dilution; type: cell-based; conditions: Pseudomonas aeruginosa, 46220DR2; ceftazidime alone, 18 h
Procedure: as §2, with “The MICs of the antibiotics (e.g., ceftazidime) alone, the MICs of ceftazidime in combination with reference compounds particularly […] (Ref. compd. I) and the MICs of the β-lactamase inhibitors (10 μg/ml) of the present invention in combination with ceftazidime were determined with the same β-lactamase producing bacteria. After” for “After”

β-lactamase = conditions: suggested by several publications; cited from earlier work

Sequence of cephalosporinase from P. aeruginosa (P24735 27-397): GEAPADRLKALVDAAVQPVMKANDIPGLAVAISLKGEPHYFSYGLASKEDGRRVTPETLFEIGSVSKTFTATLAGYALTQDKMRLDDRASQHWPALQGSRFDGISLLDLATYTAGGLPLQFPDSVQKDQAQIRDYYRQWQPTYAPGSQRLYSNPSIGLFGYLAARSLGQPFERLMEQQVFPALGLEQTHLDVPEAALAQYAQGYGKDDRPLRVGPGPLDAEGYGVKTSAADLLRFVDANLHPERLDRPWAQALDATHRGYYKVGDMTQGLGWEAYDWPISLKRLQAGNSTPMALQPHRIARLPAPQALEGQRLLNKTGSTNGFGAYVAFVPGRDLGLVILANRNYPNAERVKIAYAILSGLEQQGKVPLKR

## CC(CN)O/N=C(/C(=O)N[C@@H]1C(=O)N(S(=O)(=O)O)[C@H]1C)c1cccs1 (some centres unmarked) [Compound 11]
[1]
  IC50: 200 nM

## CC(C)(O/N=C(\C(=O)N[C@@H]1C(=O)N2C(C(=O)[O-])=C(C[n+]3ccccc3)CS[C@H]12)c1csc(N)n1)C(=O)O [ceftazidime]
[2]
  MIC: > 32 µg/mL
[3]
  MIC: 32 µg/mL
E. cloacae MNH-2
  MIC: > 32 µg/mL
E. cloacae 40054
  MIC: > 32 µg/mL
E. cloacae P 99
  MIC: > 32 µg/mL
P. aeruginosa M 1405
  MIC: > 32 µg/mL
P. aeruginosa 46012
  MIC: > 32 µg/mL
M. morganii 36030
  MIC: > 32 µg/mL
P. aeruginosa L46004
  MIC: > 32 µg/mL
C. freundii 44032
  MIC: > 32 µg/mL
E. aerogenes S-95
  MIC: > 32 µg/mL
C. freundii CT-76
  MIC: > 32 µg/mL
P. aeruginosa AU-8
  MIC: > 32 µg/mL
P. aeruginosa AU-1
  MIC: > 32 µg/mL
M. morganii 36014
  MIC: > 32 µg/mL
E. aerogenes 41006
  MIC: > 32 µg/mL
P. aeruginosa AU-10
  MIC: > 32 µg/mL
P. aeruginosa 46017
  MIC: > 32 µg/mL
P. aeruginosa CT-122
  MIC: 16 µg/mL
M. morganii 36010
  MIC: > 32 µg/mL
P. aeruginosa CT-144
  MIC: 32 µg/mL
P. aeruginosa CT-137
  MIC: 8 µg/mL
P. aeruginosa M2297
  MIC: > 32 µg/mL
P. aeruginosa AU-5
  MIC: > 32 µg/mL
[4]
  MIC: > 32 µg/mL
P. aeruginosa 46220 DR-2
  MIC: 16 µg/mL

## C[C@H]1[C@H](NC(=O)/C(=N/OC(CN)CO)c2cccs2)C(=O)N1S(=O)(=O)O (some centres unmarked) [Compound 8]
[1]
  IC50: 300 nM

## C[C@H]1[C@H](NC(=O)/C(=N/OCC(N)CO)c2cccs2)C(=O)N1S(=O)(=O)O (stereo partly drawn) [Compound 9, (3S)-trans-3-[(E)-2-(2-Thienyl)-2-{1-hydroxy-2-amino-prop-3-oxyimino}acetamido]-4-methyl-2-oxoazetidine-1-sulfonic acid, inner salt]
[1]
  IC50: 80 nM

## C[C@H]1[C@H](NC(=O)/C(=N/OC[C@H](N)CCN)c2cccs2)C(=O)N1S(=O)(=O)O [Compound 6]
[1]
  IC50: 100 nM

## CC(N)CO/N=C(/C(=O)N[C@@H]1C(=O)N(S(=O)(=O)O)[C@H]1C)c1cccs1 (stereo partly drawn) [Compound 10, (3S)-trans-3-[(E)-2-(2-Thienyl-2-{(2-amino)-prop-1-oxyimino}acetamido]-4-methyl-2-oxoazetidine-1-sulfonic acid, inner salt]
[1]
  IC50: 80 nM

## C[C@H]1[C@H](NC(=O)/C(=N\OC(C)(C)C(=O)O)c2csc(N)n2)C(=O)N1S(=O)(=O)O [Reference Compound I, Aztreonam]
[1]
  IC50: 130 nM
β-lactamase
  β-lactamase inhibitory properties: possesses β-lactamase inhibitory properties

## C[C@H]1[C@H](NC(=O)/C(=N/OCC(N)CN)c2cccs2)C(=O)N1S(=O)(=O)O (some centres unmarked) [Compound 4]
[1]
  IC50: 65 nM

## C[C@H]1[C@H](NC(=O)/C(=N/OC(CN)CN)c2cccs2)C(=O)N1S(=O)(=O)O [Compound 3, (3S)-trans-3-[(E)-2-(2-Thienyl)-2-{1,3-diamino-prop-2-oxyimino}acetamido]-4-methyl-2-oxoazetidine-1-sulfonic acid, triflate salt]
[1]
  IC50: 400 nM

## C[C@H]1[C@H](NC(=O)/C(=N/OC(CN)CNC(=N)N)c2cccs2)C(=O)N1S(=O)(=O)O (some centres unmarked) [Compound 12]
[1]
  IC50: 1090 nM

## C[C@H]1[C@H](NC(=O)/C(=N/OC[C@@H](N)CCN)c2cccs2)C(=O)N1S(=O)(=O)O [Compound 5]
[1]
  IC50: 100 nM

## C[C@H]1[C@H](NC(=O)/C(=N/OCCCN)c2cccs2)C(=O)N1S(=O)(=O)O [Compound 2]
[1]
  IC50: 20 nM

## C[C@H]1[C@H](NC(=O)/C(=N/OCCN)c2cccs2)C(=O)N1S(=O)(=O)O [Compound 1]
[1]
  IC50: 20 nM

## C[C@H]1[C@H](NC(=O)/C(=N/OCCN)c2csc(N)n2)C(=O)N1S(=O)(=O)O [Reference Compound II]
[1]
  IC50: 800 nM

## C[C@H]1[C@H](NC(=O)/C(=N/OCCNCCN)c2cccs2)C(=O)N1S(=O)(=O)O [Compound 7]
[1]
  IC50: 80 nM
